Laboratory results reported in US20190343908A1, “Therapeutic Combination for the Treatment of Cancer” (Nerium Biotechnology Inc., priority 2011, published 2019).

How the values were obtained:
[1] = test system: MCF-7 (human breast cancer); test: Crystal Violet viability assay, MCF-7; assay type: cell-based; design: key: absorbance at 570 nm (second wavelength subtracted)
Source text: The Sulforhodamine B and Crystal Violet assays provide information about protein and were used to complement the Methyl-Tetrazolium dye assay. […] It is used for the quantification of cellular proteins of cultured cells. The assay using Crystal Violet, a dye that binds electrostatically to proteins and stains DNA, provides a reliable, simple assay for measuring viability of cells.
(§1) The Methyl Tetrazolium, Sulforhodamine B, and Crystal Violet assays were used to assess cell viabilities. The incubation times were 24 hours, 48 hours, and 72 hours. The Nerium oleander extract Anvirzel™ (a hot water extract of oleander obtained from Salud Integral, Honduras) was tested in concentrations ranging from 0.01 ng/mL to 10 ng/mL.
(§2) Cells were detached by trypsinization (Trypsin-0.25% EDTA, Invitrogen, 25200-072) during the logarithmic phase of culture growth and plated in 96-well plates (18.000 cells/well) (Corning, Costar 359) in a final volume of 200 μl of medium per well. […] The absorbance was measured after 24 hours, 48 hours, and 72 hours of incubation.
[…] Formalin was removed and 0.25% aqueous crystal violet (Sigma, HT901), dissolved in water, was added for 10 minutes at RT. Unbound Crystal Violet was rinsed by washing with water and finally 33% acetic acid was added to dissolve the dye.
(§3) The optical density of each plate was measured on a μQuant spectrophotometer and the data were analyzed with Gen5 software (μQuant Biomolecular Spectrophotometer MQX200 and Gen5™ Microplate Data Collection & Analysis software, BioTek® Instruments. Inc, April 2008). Absorbance was measured at 570 nm for all assays and a second wavelength was measured in order to subtract noise. For the Methyl-Tetrazolium assay this second wavelength was 630 nm and for the Sulforhodamine B and Crystal Violet assays it was 690 nm.

[2] = test system: MCF-7 (human breast cancer); test: Methyl-Tetrazolium viability assay, MCF-7; assay type: cell-based; design: key: absorbance (optical density) at 570 nm, second wavelength subtracted
Source text: Three different viability assays were chosen to complement each other and yielded results dependent on concentration and cell line: the Methyl Tetrazolium dye assay, the Sulforhodamine B fluorescent dye assay, and the Crystal Violet dye assay.
The Methyl-Tetrazolium dye assay measures the activity of enzymes in mitochondria. The dye precursor is taken up by cells, where it undergoes reduction to the purple formazan. It measures only the mitochondrial activity and, thus, it is not always a reliable indication of whether the cells themselves are alive or dead, since even a recently dead cell has […] enzyme activity in mitochondria. Intracellular glucose concentration, pH, and time before assay all affect the measurements.
as §1, §2
For the Methyl-Tetrazolium assay, the dye (Sigma, M2128; 5 mg/mL, diluted in phosphate-buffered saline) was added to each well and plates were incubated for 3 hours at 37° C. After the end of the incubation period, the medium was discarded and the cells were rinsed with phosphate-buffered saline. Finally, the formazan crystals were dissolved in dimethylsulphoxide (Sigma, D4540).
as §3

[3] = MCF-7, Run 2, 24 h, 0.1 μg/ml CDDP
[4] = MCF-7, Run 2, 24 h, 1 μg/ml CDDP
[5] = MCF-7, Run 2, 24 h, 10 μg/ml CDDP
[6] = MCF-7, Run 2, 24 h, 100 μg/ml CDDP
[7] = MCF-7, Run 2, 48 h, 0.1 μg/ml CDDP
[8] = MCF-7, Run 2, 48 h, 1 μg/ml CDDP
[9] = MCF-7, Run 2, 48 h, 10 μg/ml CDDP
[10] = MCF-7, Run 2, 48 h, 100 μg/ml CDDP
[11] = MCF-7, Run 2, 72 h, 0.1 μg/ml CDDP
[12] = MCF-7, Run 2, 72 h, 1 μg/ml CDDP
[13] = MCF-7, Run 2, 72 h, 100 μg/ml CDDP
[14] = MCF-7, Run 3, 24 h, 0.1 μg/ml CDDP
[15] = MCF-7, Run 3, 24 h, 1 μg/ml CDDP
[16] = MCF-7, Run 3, 24 h, 10 μg/ml CDDP
[17] = MCF-7, Run 3, 48 h, 0.1 μg/ml CDDP
[18] = MCF-7, Run 3, 48 h, 1 μg/ml CDDP
[19] = MCF-7, Run 3, 48 h, 10 μg/ml CDDP
[20] = MCF-7, Run 3, 48 h, 100 μg/ml CDDP
[21] = MCF-7, Run 3, 72 h, 0.1 μg/ml CDDP
[22] = MCF-7, Run 3, 72 h, 1 μg/ml CDDP
[23] = MCF-7, Run 3, 72 h, 10 μg/ml CDDP
[24] = MCF-7, Run 3, 72 h, 100 μg/ml CDDP
[25] = MCF-7 Run 1, 24 h, 0.1 μg/ml CDDP
[26] = MCF-7 Run 1, 24 h, 1 μg/ml CDDP
[27] = MCF-7 Run 1, 24 h, 10 μg/ml CDDP
[28] = MCF-7 Run 1, 24 h, 100 μg/ml CDDP
[29] = MCF-7 Run 1, 48 h, 0.1 μg/ml CDDP
[30] = MCF-7 Run 1, 48 h, 10 μg/ml CDDP
[31] = MCF-7 Run 1, 48 h, 100 μg/ml CDDP
[32] = MCF-7 Run 1, 72 h, 0.1 μg/ml CDDP
[33] = MCF-7 Run 1, 72 h, 1 μg/ml CDDP
[34] = MCF-7 Run 1, 72 h, 10 μg/ml CDDP
[35] = MCF-7 Run 1, 72 h, 100 μg/ml CDDP

N.N.[Cl][Pt][Cl] [cisplatin]
CVE Average [1, 3]: 0.71
CVE Average [1, 4]: 0.192
CVE Average [1, 5]: 0.612
CVE Average [1, 6]: 0.288
CVE Average [1, 7]: 0.664
CVE Average [1, 8]: 0.239
CVE Average [1, 9]: 0.24
CVE Average [1, 10]: 0.221
CVE Average [1, 11]: 0.678
CVE Average [1, 12]: 0.151
CVE Average [1, 13]: 0.147
CVE Average [1, 14]: 0.454
CVE Average [1, 15]: 0.183
CVE Average [1, 16]: 0.307
CVE Average [1, 17]: 0.811
CVE Average [1, 18]: 0.871
CVE Average [1, 19]: 0.769
CVE Average [1, 20]: 0.439
CVE Average [1, 21]: 1.312
CVE Average [1, 22]: 0.51
CVE Average [1, 23]: 0.449
CVE Average [1, 24]: 0.253
CVE Average [1, 25]: 0.978
CVE Average [1, 26]: 0.376
CVE Average [1, 27]: 0.468
CVE Average [1, 28]: 0.285
CVE Average [1, 29]: 1.112
CVE Average [1, 30]: 0.303
CVE Average [1, 31]: 0.153
CVE Average [1, 32]: 1.632
CVE Average [1, 33]: 0.325
CVE Average [1, 34]: 0.237
CVE Average [1, 35]: 0.284
MTT Average [2, 3]: 0.263
MTT Average [2, 4]: 0.027
MTT Average [2, 5]: 0.124
MTT Average [2, 6]: 0.029
MTT Average [2, 7]: 0.37
MTT Average [2, 8]: 0.025
MTT Average [2, 9]: 0.045
MTT Average [2, 10]: 0.029
MTT Average [2, 11]: 0.39
MTT Average [2, 12]: 0.038
MTT Average ([2]; MCF-7, Run 2, 72 h, 10 μg/ml CDDP): 0.028
MTT Average [2, 13]: 0.013
MTT Average [2, 14]: 0.516
MTT Average [2, 15]: 0.039
MTT Average [2, 16]: 0.135
MTT Average ([2]; MCF-7, Run 3, 24 h, 100 μg/ml CDDP): 0.026
MTT Average [2, 17]: 0.525
MTT Average [2, 18]: 0.041
MTT Average [2, 19]: 0.03
MTT Average [2, 20]: 0.032
MTT Average [2, 21]: 0.546
MTT Average [2, 22]: 0.035
MTT Average [2, 23]: 0.032
MTT Average [2, 24]: 0.018
MTT Average [2, 25]: 0.574
MTT Average [2, 26]: 0.066
MTT Average [2, 27]: 0.194
MTT Average [2, 28]: 0.034
MTT Average [2, 29]: 0.719
MTT Average ([2]; MCF-7 Run 1, 48 h, 1 μg/ml CDDP): 0.051
MTT Average [2, 30]: 0.069
MTT Average [2, 31]: 0.025
MTT Average [2, 32]: 0.788
MTT Average [2, 33]: 0.048
MTT Average [2, 34]: 0.047
MTT Average [2, 35]: 0.023
